Like-named read-outs stand apart in the source and are kept apart here.
Experiments:
Type in all cases: biochemical
[1] = biological target: EPHA2 (Homo sapiens, UniProt P29317); assay: EPHA2 kinase assay, IMAP fluorescence polarization
[2] = biological target: SIK3 (Homo sapiens, UniProt Q9Y2K2); assay: SIK3 kinase assay, IMAP fluorescence polarization; conditions: 50 or 100 μM ATP; average; read-out: SIK3-AVERAGE Ki
[3] = biological target: Abl (Homo sapiens, UniProt P00519); assay: Abl kinase assay, IMAP fluorescence polarization; conditions: 50 or 100 μM ATP; average; read-out: Abl-AVERAGE Ki
[4] = biological target: SIK2 (Homo sapiens, UniProt Q9H0K1); assay: SIK2 kinase assay, IMAP fluorescence polarization; conditions: 50 or 100 μM ATP; average; read-out: SIK2-AVERAGE Ki
[5] = biological target: SIK1 (Homo sapiens, UniProt P57059); assay: SIK1 kinase assay, IMAP fluorescence polarization; conditions: 50 or 100 μM ATP; average; read-out: SIK1-AVERAGE Ki
[6] = biological target: Src (Homo sapiens, UniProt P12931); assay: Src kinase assay, IMAP fluorescence polarization; conditions: 50 or 100 μM ATP; average; read-out: Src-AVERAGE Ki
Src, sequence (P12931 whole entry): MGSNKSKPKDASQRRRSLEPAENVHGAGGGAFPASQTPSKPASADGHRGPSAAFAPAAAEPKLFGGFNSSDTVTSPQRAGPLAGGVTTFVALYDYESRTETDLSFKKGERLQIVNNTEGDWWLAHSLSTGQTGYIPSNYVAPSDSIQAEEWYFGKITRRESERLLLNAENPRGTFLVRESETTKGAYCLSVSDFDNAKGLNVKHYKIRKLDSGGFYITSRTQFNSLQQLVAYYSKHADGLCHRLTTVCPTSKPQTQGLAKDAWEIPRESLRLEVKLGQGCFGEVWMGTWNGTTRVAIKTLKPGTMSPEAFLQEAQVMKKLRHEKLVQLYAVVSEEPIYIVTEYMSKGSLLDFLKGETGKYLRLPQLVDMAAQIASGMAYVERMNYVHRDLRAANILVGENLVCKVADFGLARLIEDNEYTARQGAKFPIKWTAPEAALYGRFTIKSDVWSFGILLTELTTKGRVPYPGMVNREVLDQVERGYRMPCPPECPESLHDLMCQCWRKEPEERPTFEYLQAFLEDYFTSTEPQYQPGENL

SIK3, sequence (Q9Y2K2 whole entry): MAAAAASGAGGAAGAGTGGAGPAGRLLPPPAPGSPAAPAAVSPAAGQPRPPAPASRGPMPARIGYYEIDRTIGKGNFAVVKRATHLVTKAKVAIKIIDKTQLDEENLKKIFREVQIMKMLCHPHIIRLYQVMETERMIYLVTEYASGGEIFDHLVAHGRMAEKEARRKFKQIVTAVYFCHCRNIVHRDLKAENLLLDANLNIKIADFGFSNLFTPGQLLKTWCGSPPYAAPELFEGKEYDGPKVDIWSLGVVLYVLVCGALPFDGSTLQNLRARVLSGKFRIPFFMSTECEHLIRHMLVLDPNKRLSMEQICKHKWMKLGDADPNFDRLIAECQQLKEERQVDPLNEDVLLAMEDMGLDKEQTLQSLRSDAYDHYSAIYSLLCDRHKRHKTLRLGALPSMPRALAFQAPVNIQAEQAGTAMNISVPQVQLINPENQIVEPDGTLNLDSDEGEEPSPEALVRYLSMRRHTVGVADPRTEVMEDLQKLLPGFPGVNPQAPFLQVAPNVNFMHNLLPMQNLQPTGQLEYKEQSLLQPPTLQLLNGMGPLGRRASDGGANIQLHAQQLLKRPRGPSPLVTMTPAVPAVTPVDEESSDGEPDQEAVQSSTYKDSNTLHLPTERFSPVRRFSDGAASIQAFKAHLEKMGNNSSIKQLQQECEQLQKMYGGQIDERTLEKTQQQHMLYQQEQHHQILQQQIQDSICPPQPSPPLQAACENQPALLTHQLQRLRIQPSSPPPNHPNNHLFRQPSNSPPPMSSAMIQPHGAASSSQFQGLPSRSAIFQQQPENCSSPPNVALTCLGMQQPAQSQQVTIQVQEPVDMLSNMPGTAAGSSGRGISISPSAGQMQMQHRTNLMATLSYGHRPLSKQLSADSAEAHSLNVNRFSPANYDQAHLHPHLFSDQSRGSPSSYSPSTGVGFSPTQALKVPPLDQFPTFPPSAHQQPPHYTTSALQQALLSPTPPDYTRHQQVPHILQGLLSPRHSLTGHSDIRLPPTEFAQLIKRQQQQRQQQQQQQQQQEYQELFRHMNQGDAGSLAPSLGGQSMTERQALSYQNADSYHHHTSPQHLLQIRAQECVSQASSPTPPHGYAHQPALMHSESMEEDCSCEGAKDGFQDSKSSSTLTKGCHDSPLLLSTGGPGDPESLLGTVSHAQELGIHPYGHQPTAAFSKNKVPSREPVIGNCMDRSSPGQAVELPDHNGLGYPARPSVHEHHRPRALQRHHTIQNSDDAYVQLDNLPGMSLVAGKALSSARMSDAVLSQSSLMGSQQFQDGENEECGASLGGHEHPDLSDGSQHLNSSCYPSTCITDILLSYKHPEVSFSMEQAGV
SIK2, sequence (Q9H0K1 whole entry): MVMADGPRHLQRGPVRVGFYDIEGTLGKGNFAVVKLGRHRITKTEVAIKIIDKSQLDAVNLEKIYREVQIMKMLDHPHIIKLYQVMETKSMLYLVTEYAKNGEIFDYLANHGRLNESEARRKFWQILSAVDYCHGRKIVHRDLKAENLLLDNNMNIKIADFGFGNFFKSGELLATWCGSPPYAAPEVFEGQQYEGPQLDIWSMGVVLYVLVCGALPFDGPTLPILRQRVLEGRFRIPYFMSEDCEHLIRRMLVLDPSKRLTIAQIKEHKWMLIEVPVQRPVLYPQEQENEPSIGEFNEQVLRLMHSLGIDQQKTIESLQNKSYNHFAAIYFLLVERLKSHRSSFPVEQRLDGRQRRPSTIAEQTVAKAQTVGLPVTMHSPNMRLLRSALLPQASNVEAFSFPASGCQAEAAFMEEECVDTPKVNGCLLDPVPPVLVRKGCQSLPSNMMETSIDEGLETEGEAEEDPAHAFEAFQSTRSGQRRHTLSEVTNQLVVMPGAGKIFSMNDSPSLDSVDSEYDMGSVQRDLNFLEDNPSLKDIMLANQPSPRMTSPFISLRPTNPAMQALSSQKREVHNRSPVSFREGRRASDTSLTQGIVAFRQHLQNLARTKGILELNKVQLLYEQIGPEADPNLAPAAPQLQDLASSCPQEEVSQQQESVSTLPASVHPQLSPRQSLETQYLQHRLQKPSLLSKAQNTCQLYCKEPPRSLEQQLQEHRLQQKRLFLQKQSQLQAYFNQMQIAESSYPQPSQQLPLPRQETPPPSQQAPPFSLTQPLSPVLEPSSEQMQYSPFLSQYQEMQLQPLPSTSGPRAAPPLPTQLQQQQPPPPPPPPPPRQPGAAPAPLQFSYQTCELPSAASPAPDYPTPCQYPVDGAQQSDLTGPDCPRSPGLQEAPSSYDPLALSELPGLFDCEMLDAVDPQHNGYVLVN
SIK1, sequence (P57059 whole entry): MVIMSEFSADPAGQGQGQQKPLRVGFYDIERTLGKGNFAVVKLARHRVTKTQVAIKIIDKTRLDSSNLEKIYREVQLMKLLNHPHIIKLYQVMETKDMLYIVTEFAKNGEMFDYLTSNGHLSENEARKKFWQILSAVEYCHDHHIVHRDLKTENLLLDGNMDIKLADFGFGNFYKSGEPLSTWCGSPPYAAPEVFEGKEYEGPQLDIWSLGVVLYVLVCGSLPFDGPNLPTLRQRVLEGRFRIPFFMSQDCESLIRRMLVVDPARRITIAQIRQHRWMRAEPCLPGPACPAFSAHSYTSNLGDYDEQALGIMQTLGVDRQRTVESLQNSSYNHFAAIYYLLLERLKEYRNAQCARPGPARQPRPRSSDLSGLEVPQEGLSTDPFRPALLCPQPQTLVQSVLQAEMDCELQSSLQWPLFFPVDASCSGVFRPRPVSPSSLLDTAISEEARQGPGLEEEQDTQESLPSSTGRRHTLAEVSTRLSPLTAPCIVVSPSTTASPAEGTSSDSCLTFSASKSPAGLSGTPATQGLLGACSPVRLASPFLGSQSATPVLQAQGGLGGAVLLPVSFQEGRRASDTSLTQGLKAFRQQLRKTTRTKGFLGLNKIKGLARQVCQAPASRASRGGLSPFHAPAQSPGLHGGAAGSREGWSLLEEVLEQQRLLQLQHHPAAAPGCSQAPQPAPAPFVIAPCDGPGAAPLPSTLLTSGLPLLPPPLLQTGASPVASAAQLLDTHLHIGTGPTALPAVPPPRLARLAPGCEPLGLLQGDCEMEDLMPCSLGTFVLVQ
EPHA2, sequence (P29317 24-976): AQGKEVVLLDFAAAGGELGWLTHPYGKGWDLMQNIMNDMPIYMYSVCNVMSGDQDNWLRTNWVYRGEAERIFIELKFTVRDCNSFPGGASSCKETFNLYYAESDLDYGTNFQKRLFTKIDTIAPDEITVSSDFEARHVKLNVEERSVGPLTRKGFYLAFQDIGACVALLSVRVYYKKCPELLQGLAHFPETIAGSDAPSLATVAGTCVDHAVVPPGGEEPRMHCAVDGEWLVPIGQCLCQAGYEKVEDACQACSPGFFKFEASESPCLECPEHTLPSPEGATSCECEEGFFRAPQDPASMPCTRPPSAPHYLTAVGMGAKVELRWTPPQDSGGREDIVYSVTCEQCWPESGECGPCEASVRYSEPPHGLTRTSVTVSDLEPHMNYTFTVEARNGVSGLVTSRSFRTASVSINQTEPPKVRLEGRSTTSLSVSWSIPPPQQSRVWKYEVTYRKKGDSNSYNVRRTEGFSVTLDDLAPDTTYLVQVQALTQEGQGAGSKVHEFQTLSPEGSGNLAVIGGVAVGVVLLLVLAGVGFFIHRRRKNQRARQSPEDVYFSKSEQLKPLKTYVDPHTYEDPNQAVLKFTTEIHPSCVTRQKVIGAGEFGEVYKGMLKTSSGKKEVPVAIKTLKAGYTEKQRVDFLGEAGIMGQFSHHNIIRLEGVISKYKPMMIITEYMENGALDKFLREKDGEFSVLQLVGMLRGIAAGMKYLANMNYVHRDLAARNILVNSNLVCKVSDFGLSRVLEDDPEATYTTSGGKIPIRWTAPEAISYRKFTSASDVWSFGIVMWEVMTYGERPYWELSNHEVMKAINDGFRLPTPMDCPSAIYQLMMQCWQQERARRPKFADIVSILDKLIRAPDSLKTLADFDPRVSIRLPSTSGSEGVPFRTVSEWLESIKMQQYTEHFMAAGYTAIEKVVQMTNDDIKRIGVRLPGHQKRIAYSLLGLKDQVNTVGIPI

| Structure (SMILES) | Ki ([1]; 50 or 100 μM ATP, average) [nM] | Ki [2] [nM] | Ki [3] [nM] | Ki [4] [nM] | Ki [5] [nM] | Ki [6] [nM] | Ki [1] [nM] |
| --- | --- | --- | --- | --- | --- | --- | --- |
| Cc1cccc(F)c1N1Cc2cnc(N)nc2N([C@H]2CCCCNC2)C1=O [Example 70, 7-amino-1-[(3S)-azepan-3-yl]-3-(2-fluoro-6-methyl-phenyl)-4H-pyrimido[4,5-d]pyrimidin-2-one] | 73.8 | 5.92 | 85.7 | 0.278 | 0.907 | 114 |  |
| Cc1cccc(F)c1N1Cc2cnc(N)cc2N([C@@H]2CCCNC2)C1=O [Example 48, 7-amino-3-(2-fluoro-6-methyl-phenyl)-1-[(3R)-3-piperidyl]-4H-pyrido[4,3-d]pyrimidin-2-one] |  | 4 | > 1000 | 0.348 | 1.26 | 132 | 68.5 |
| Cc1cccc(F)c1N1Cc2cnc(N)cc2N(CC2CCNCC2)C1=O [Example 2, 7-amino-3-(2-fluoro-6-methyl-phenyl)-1-(4-piperidylmethyl)-4H-pyrido[4,3-d]pyrimidin-2-one] | 38.7 | 0.55 | 2.34 | 0.163 | 0.94 | 23.1 |  |
| Cc1cccc(Cl)c1N1Cc2cnc(N)cc2N(C2CNC2)C1=O [Example 8, 7-amino-1-(azetidin-3-yl)-3-(2-chloro-6-methyl-phenyl)-4H-pyrido[4,3-d]pyrimidin-2-one] |  | 45.6 | > 1000 | 4.49 | 7.76 | 158 | 149 |
| Cc1cccc(F)c1N1Cc2cnc(N)cc2N([C@H]2CCCNC2)C1=O [Example 49, 7-amino-3-(2-fluoro-6-methyl-phenyl)-1-[(3S)-3-piperidyl]-4H-pyrido[4,3-d]pyrimidin-2-one] |  | 3.21 | > 1000 | 0.473 | 0.878 | > 1000 | > 1000 |
| CN[C@H]1CC[C@@H](N2C(=O)N(c3c(C)cccc3F)Cc3cnc(N)cc32)CC1 [Example 63, cis-7-amino-3-(2-fluoro-6-methyl-phenyl)-1-[4-(methylamino)cyclohexyl]-4H-pyrido[4,3-d]pyrimidin-2-one] | 57.6 | 4.71 | 11 | 0.676 | 2.2 | 40.5 |  |
| Cc1cccc(F)c1N1Cc2cnccc2N([C@H]2CCCCNC2)C1=O [Example 52, 3-(2-fluoro-6-methyl-phenyl)-1-[(3S)-azepan-3-yl]-4H-pyrido[4,3-d]pyrimidin-2-one] | 1520 | 288 | > 10000 | 13.7 | 42 | > 10000 |  |
| Cc1cccc(F)c1N1Cc2cnc(N)nc2N([C@H]2CC[C@H](N(C)C)CC2)C1=O [Example 45, trans-7-Amino-1-[4-(dimethylamino)cyclohexyl]-3-(2-fluoro-6-methyl-phenyl)-4H-pyrimido[4,5-d]pyrimidin-2-one] | 34.2 | 0.992 | 15.7 | 0.244 | 0.749 | 55.5 |  |
| CN[C@H]1CC[C@@H](N2C(=O)N(c3c(C)cccc3F)Cc3cnc(N)nc32)CC1 [Example 60, cis-7-Amino-3-(2-fluoro-6-methyl-phenyl)-1-[4-(methylamino)cyclohexyl]-4H-pyrimido[4,5-d]pyrimidin-2-one] | 40.1 | 2.6 | 18 | 0.464 | 1.38 | 73.6 |  |
| Cc1cccc(F)c1N1Cc2cnc(N)nc2N([C@H]2CCCCN(C)C2)C1=O [Example 36, 7-amino-3-(2-fluoro-6-methyl-phenyl)-1-[(3S)-1-methylazepan-3-yl]-4H-pyrimido[4,5-d]pyrimidin-2-one] | 124 | 8.61 | 62.1 | 0.68 | 1.85 | 138 |  |
| Cc1cccc(F)c1N1Cc2cnc(N)cc2N([C@H]2CC[C@H](N(C)C)CC2)C1=O [Example 59, trans-7-Amino-1-[4-(dimethylamino)cyclohexyl]-3-(2-fluoro-6-methyl-phenyl)-4H-pyrido[4,3-d]pyrimidin-2-one] | 123 | 0.143 | 7.31 | 0.1 | 0.292 | 29.7 |  |
| Cc1cccc(Cl)c1N1Cc2cnc(N)cc2N(C2CN(C)C2)C1=O [Example 9, 7-amino-3-(2-chloro-6-methyl-phenyl)-1-(1-methylazetidin-3-yl)-4H-pyrido[4,3-d]pyrimidin-2-one] |  | 145 | > 1000 | 17.9 | 29.2 | > 1000 | 175 |
| CNc1cc2c(cn1)CN(c1c(C)cccc1F)C(=O)N2[C@H]1CC[C@@H](N(C)C)CC1 [Example 40, cis-1-[4-(dimethylamino)cyclohexyl]-3-(2-fluoro-6-methyl-phenyl)-7-(methylamino)-4H-pyrido[4,3-d]pyrimidin-2-one] | 106 | 18.4 | 62.7 | 1.25 | 3.93 | 626 |  |
| Cc1cccc(Cl)c1N1Cc2cnc(N)nc2N(C2CNC2)C1=O [Example 14, 7-amino-1-(azetidin-3-yl)-3-(2-chloro-6-methyl-phenyl)-4H-pyrimido[4,5-d]pyrimidin-2-one] | 180 | 9.47 | 42.5 | 1.67 | 5.8 | 96.1 |  |
| Cc1cccc(F)c1N1Cc2cnc(N)cc2N(C2CNC2)C1=O [Example 4, 7-amino-1-(azetidin-3-yl)-3-(2-fluoro-6-methyl-phenyl)-4H-pyrido[4,3-d]pyrimidin-2-one] |  | 35.3 | 187 | 4.08 | 7.92 | 547 | 221 |
| Cc1cccc(F)c1N1Cc2cnc(N)nc2N([C@@H]2CCCCNC2)C1=O [Example 72, 7-amino-1-[(3R)-azepan-3-yl]-3-(2-fluoro-6-methyl-phenyl)-4H-pyrimido[4,5-d]pyrimidin-2-one] | 23.7 | 21.1 | 19.8 | 1.14 | 1.93 | 50.4 |  |

Other lines, results leading:

| Ki ([1]; 50 or 100 μM ATP, average) [nM] | Ki [2] [nM] | Ki [3] [nM] | Ki [4] [nM] | Ki [5] [nM] | Ki [6] [nM] | Ki [1] [nM] | Structure (SMILES) |
| --- | --- | --- | --- | --- | --- | --- | --- |
| 19.8 | 0.28 | 28.7 | 0.101 | 0.171 | 36.4 |  | CN[C@H]1CC[C@H](N2C(=O)N(c3c(C)cccc3F)Cc3cnc(N)nc32)CC1 [Example 61, trans-7-amino-3-(2-fluoro-6-methyl-phenyl)-1-[4-(methylamino)cyclohexyl]-4H-pyrimido[4,5-d]pyrimidin-2-one] |
| 7.16 | 4.71 | 14.3 | 0.364 | 1.25 | 33 |  | Cc1cccc(F)c1N1Cc2cnc(N)cc2N([C@H]2CCC[C@H](N)C2)C1=O (relative stereo) [Example 55, 7-amino-1-[(trans)-3-aminocyclohexyl]-3-(2-fluoro-6-methyl-phenyl)-4H-pyrido[4,3-d]pyrimidin-2-one] |
| 42.6 | 3.05 | 17 | 0.396 | 1.1 | 61.5 |  | CNC1CCCC(N2C(=O)N(c3c(C)cccc3F)Cc3cnc(N)cc32)C1 (stereo not drawn) [Example 57, 7-amino-3-(2-fluoro-6-methyl-phenyl)-1-[3-(methylamino)cyclohexyl]-4H-pyrido[4,3-d]pyrimidin-2-one] |
| 88.5 | 6.28 | 104 | 0.368 | 1.26 | 391 |  | Cc1cccc(F)c1N1Cc2cnc(N)nc2N([C@H]2CCCNC2)C1=O [Example 71, 7-amino-3-(2-fluoro-6-methyl-phenyl)-1-[(3S)-3-piperidyl]-4H-pyrimido[4,5-d]pyrimidin-2-one] |
| 97.4 | 1.35 | 25.5 | 0.343 | 0.733 | 39.4 |  | CN[C@H]1CC[C@H](N2C(=O)N(c3c(C)cccc3F)Cc3cnc(N)cc32)CC1 [Example 64, trans-7-amino-3-(2-fluoro-6-methyl-phenyl)-1-[4-(methylamino)cyclohexyl]-4H-pyrido[4,3-d]pyrimidin-2-one] |
|  | 37.9 | 352 | 2.12 | 3.2 | > 10000 | 296 | Cc1cccc(F)c1N1Cc2cnc(N)cc2N([C@@H]2CCN(C)C2)C1=O [Example 80, 7-amino-3-(2-fluoro-6-methyl-phenyl)-1-[(3R)-1-methylpyrrolidin-3-yl]-4H-pyrido[4,3-d]pyrimidin-2-one] |
| > 1000 | 15.4 | > 1000 | 1.62 | 1.28 | > 1000 |  | Cc1cccc(F)c1N1Cc2cnc(N)cc2N([C@H]2CCNC2)C1=O [Example 78, 7-amino-3-(2-fluoro-6-methyl-phenyl)-1-[(3S)-pyrrolidin-3-yl]-4H-pyrido[4,3-d]pyrimidin-2-one] |
| 162 | 54.7 | > 10000 | 14.2 | 28.6 | 550 |  | Cc1cccc(Cl)c1N1Cc2cnc(N)nc2N(C2CN(C)C2)C1=O [Example 23, 7-amino-3-(2-chloro-6-methyl-phenyl)-1-(1-methylazetidin-3-yl)-4H-pyrimido[4,5-d]pyrimidin-2-one] |
